Results: the supplement of paper PMC11451515

Legend:
Conditions in all cases: 48 h
NOMO1 [1] = assay: AUC of viability dose-response curve (% viability x log10 dose units); higher = less sensitive
How it was run: (§1)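 Area under the curve was integrated by trapezoidal rule from a log-logistic fit of normalised viability, with curves exceeding full viability scaled and quality-control failures removed. The fit had four parameters over log10 doses. Viability came from CellTiter-Glo One luminescence, normalised per plate to DMSO and cell-free wells, after leukemia cells adapted to each medium (500 or 1000 cells/well, 1536-well plates) were exposed to library compounds in DMSO for 48 h at 37°C. The 11 threefold doses ran from 47 μM to 0.79 nM.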

SEM cells [2] = assay: as above
How it was run: as §1

P12-Ichikawa [3] = assay: as above
How it was run: as §1

NOMO1 [4] = assay: cell viability relative to DMSO control; higher = less cytotoxic
How it was run: (§2)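 Viability is expressed as a percentage of DMSO wells within each plate, and cell-free wells serve as background. Seeding densities in the 1536-well plates (5 μl) were 500 cells/well for NOMO1 or SEM leukemia cells and 1000 cells/well for P12-Ichikawa. Each line was adapted for at least four passages in each medium. Library compounds in DMSO were pin-dosed at 47 μM to 0.79 nM (11 points, threefold), and CellTiter-Glo One luminescence was read after 48 h at 37°C.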

SEM cells [5] = assay: as above
How it was run: as §2

P12-Ichikawa [6] = assay: as above
How it was run: as §2

CC(C(=O)O)c1ccc2c(c1)CC(=O)c1ccccc1S2 (configuration not stated)
AUC of viability dose-response curve
Conditions	NOMO1 [1]	P12-Ichikawa [3]	SEM cells [2]
HPLM + 10% dialyzed FBS	389	427	440
RPMI 5 mM glucose + 10% FBS	418	418	461
RPMI 5 mM glucose + 10% dialyzed FBS	415	425	458

cell viability [%]
Conditions	NOMO1 [4]	P12-Ichikawa [6]	SEM cells [5]
HPLM + 10% dialyzed FBS, 0.000781 µM	114	104	99.9
HPLM + 10% dialyzed FBS, 0.00234 µM	106	108	117
HPLM + 10% dialyzed FBS, 0.00702 µM	113	107	109
HPLM + 10% dialyzed FBS, 0.0211 µM	120	110	115
HPLM + 10% dialyzed FBS, 0.0632 µM	121	118	94.3
HPLM + 10% dialyzed FBS, 0.19 µM	128	106	112
HPLM + 10% dialyzed FBS, 0.569 µM	109	115	95.4
HPLM + 10% dialyzed FBS, 1.71 µM	87.2	101	114
HPLM + 10% dialyzed FBS, 5.12 µM	68.2	111	126
HPLM + 10% dialyzed FBS, 15.4 µM	25.7	37.5	116
HPLM + 10% dialyzed FBS, 46.1 µM	30.6	25.1	115
RPMI 5 mM glucose + 10% FBS, 0.000781 µM	104	99.3	111
RPMI 5 mM glucose + 10% FBS, 0.00234 µM	115	117	109
RPMI 5 mM glucose + 10% FBS, 0.00702 µM	116	101	116
RPMI 5 mM glucose + 10% FBS, 0.0211 µM	112	104	104
RPMI 5 mM glucose + 10% FBS, 0.0632 µM	107	116	103
RPMI 5 mM glucose + 10% FBS, 0.19 µM	106	115	105
RPMI 5 mM glucose + 10% FBS, 0.569 µM	103	118	117
RPMI 5 mM glucose + 10% FBS, 1.71 µM	103	109	121
RPMI 5 mM glucose + 10% FBS, 5.12 µM	103	106	99.4
RPMI 5 mM glucose + 10% FBS, 15.4 µM	22.3	24	107
RPMI 5 mM glucose + 10% FBS, 46.1 µM	21.2	18.8	96.5
RPMI 5 mM glucose + 10% dialyzed FBS, 0.000781 µM	99.6	102	122
RPMI 5 mM glucose + 10% dialyzed FBS, 0.00234 µM	116	101	115
RPMI 5 mM glucose + 10% dialyzed FBS, 0.00702 µM	94.2	101	129
RPMI 5 mM glucose + 10% dialyzed FBS, 0.0211 µM	105	99.2	133
RPMI 5 mM glucose + 10% dialyzed FBS, 0.0632 µM	113	99.5	124
RPMI 5 mM glucose + 10% dialyzed FBS, 0.19 µM	105	107	108
RPMI 5 mM glucose + 10% dialyzed FBS, 0.569 µM	103	104	116
RPMI 5 mM glucose + 10% dialyzed FBS, 1.71 µM	85.3	109	117
RPMI 5 mM glucose + 10% dialyzed FBS, 5.12 µM	87.7	104	110
RPMI 5 mM glucose + 10% dialyzed FBS, 15.4 µM	23	31.7	129
RPMI 5 mM glucose + 10% dialyzed FBS, 46.1 µM	24	21.2	118

COc1nc(C)cnc1N[S+](=O)([O-])c1cccnc1-c1ccc(-c2nnco2)cc1
AUC of viability dose-response curve
Conditions	HPLM + 10% dialyzed FBS	RPMI 5 mM glucose + 10% FBS	RPMI 5 mM glucose + 10% dialyzed FBS
NOMO1 [1]	465	455	474
SEM cells [2]	471	452	460

Cc1coc2c1C(=O)C(=O)c1c-2ccc2c1CCCC2(C)C
AUC of viability dose-response curve
Conditions	NOMO1 [1]	P12-Ichikawa [3]	SEM cells [2]
HPLM + 10% dialyzed FBS	437	450	439
RPMI 5 mM glucose + 10% FBS	455	444	432
RPMI 5 mM glucose + 10% dialyzed FBS	450	438	421

cell viability [%]
Conditions	NOMO1 [4]	P12-Ichikawa [6]	SEM cells [5]
HPLM + 10% dialyzed FBS, 0.000781 µM	111	103	112
HPLM + 10% dialyzed FBS, 0.00234 µM	98.8	106	98.6
HPLM + 10% dialyzed FBS, 0.00702 µM	126	109	104
HPLM + 10% dialyzed FBS, 0.0211 µM	118	116	102
HPLM + 10% dialyzed FBS, 0.0632 µM	107	106	96.8
HPLM + 10% dialyzed FBS, 0.19 µM	105	104	97
HPLM + 10% dialyzed FBS, 0.569 µM	92.9	93	97.1
HPLM + 10% dialyzed FBS, 1.71 µM	95.5	93.2	102
HPLM + 10% dialyzed FBS, 5.12 µM	82	94	99.6
HPLM + 10% dialyzed FBS, 15.4 µM	105	94.8	85.2
HPLM + 10% dialyzed FBS, 46.1 µM	96.8	99.8	87.4
RPMI 5 mM glucose + 10% FBS, 0.000781 µM	89.8	96.6	112
RPMI 5 mM glucose + 10% FBS, 0.00234 µM	98.7	98.3	108
RPMI 5 mM glucose + 10% FBS, 0.00702 µM	96.8	97.9	107
RPMI 5 mM glucose + 10% FBS, 0.0211 µM	104	95.3	109
RPMI 5 mM glucose + 10% FBS, 0.0632 µM	116	91	101
RPMI 5 mM glucose + 10% FBS, 0.19 µM	103	92.1	99.6
RPMI 5 mM glucose + 10% FBS, 0.569 µM	99.9	95.4	104
RPMI 5 mM glucose + 10% FBS, 1.71 µM	83.5	88.6	95.8
RPMI 5 mM glucose + 10% FBS, 5.12 µM	83.5	91.5	97.1
RPMI 5 mM glucose + 10% FBS, 15.4 µM	95.1	89.4	79.9
RPMI 5 mM glucose + 10% FBS, 46.1 µM	90.8	87.9	80.7
RPMI 5 mM glucose + 10% dialyzed FBS, 0.000781 µM	97.4	95.5	96.7
RPMI 5 mM glucose + 10% dialyzed FBS, 0.00234 µM	104	97.8	99.7
RPMI 5 mM glucose + 10% dialyzed FBS, 0.00702 µM	95.7	103	102
RPMI 5 mM glucose + 10% dialyzed FBS, 0.0211 µM	98.9	93.7	97.4
RPMI 5 mM glucose + 10% dialyzed FBS, 0.0632 µM	103	96.5	90.3
RPMI 5 mM glucose + 10% dialyzed FBS, 0.19 µM	88.8	87.7	88
RPMI 5 mM glucose + 10% dialyzed FBS, 0.569 µM	88.4	87.3	82.6
RPMI 5 mM glucose + 10% dialyzed FBS, 1.71 µM	87.5	87.8	76
RPMI 5 mM glucose + 10% dialyzed FBS, 5.12 µM	88.4	83.4	75.1
RPMI 5 mM glucose + 10% dialyzed FBS, 15.4 µM	92.5	84.7	78.4
RPMI 5 mM glucose + 10% dialyzed FBS, 46.1 µM	93.1	92.2	84.3

OC1=CC=C(C=C1)\C2=C(O)\C(=O)C3=C(O2)C=C(O)C=C3O
AUC of viability dose-response curve
Conditions	NOMO1 [1]	P12-Ichikawa [3]	SEM cells [2]
HPLM + 10% dialyzed FBS	443	465	466
RPMI 5 mM glucose + 10% FBS	458	437	469
RPMI 5 mM glucose + 10% dialyzed FBS	466	449	470

SEM cells [5], RPMI 5 mM glucose + 10% FBS
Conditions	cell viability [%]
0.000781 µM	119
0.00234 µM	100
0.00702 µM	116
0.0211 µM	127
0.0632 µM	127
0.19 µM	133
0.569 µM	135
1.71 µM	128
5.12 µM	127
15.4 µM	123
46.1 µM	87.2
